According to PubChem BioAssay (NCI):
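How tested: cells in 96-well plates exposed to compound for 48 hours at five concentrations. Definition used: TGI = concentration required for complete inhibition of growth.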

Columns and labels:
Test in all cases: inhibition of tumour cell growth, NCI panel, 48 h
A498 renal = system: A498 renal
UACC-62 melanoma = system: UACC-62 melanoma
NCI/ADR-RES ovarian = system: NCI/ADR-RES ovarian
SNB-75 CNS = system: SNB-75 CNS
MALME-3M melanoma = system: MALME-3M melanoma
HCT-15 colon = system: HCT-15 colon
MDA-N = system: MDA-N
A549 NSCLC = system: A549 NSCLC
NCI-H23 lung = system: NCI-H23 lung
MDA-MB-231 breast = system: MDA-MB-231 breast
T-47D breast = system: T-47D breast
SK-MEL-2 melanoma = system: SK-MEL-2 melanoma
SN12C renal = system: SN12C renal
HCT-116 colon = system: HCT-116 colon
SF-295 CNS = system: SF-295 CNS
CCRF-CEM leukemia = system: CCRF-CEM leukemia
SK-MEL-5 melanoma = system: SK-MEL-5 melanoma
ACHN renal = system: ACHN renal
HOP-92 NSCLC = system: HOP-92 NSCLC
RXF 393 renal = system: RXF 393 renal

Structure (SMILES)	TGI (A498 renal)	TGI (UACC-62 melanoma)	TGI (NCI/ADR-RES ovarian)	TGI (SNB-75 CNS)	TGI (MALME-3M melanoma)	TGI (HCT-15 colon)	TGI (MDA-N)	TGI (A549 NSCLC)	TGI (NCI-H23 lung)	TGI (MDA-MB-231 breast)	TGI (T-47D breast)	TGI (SK-MEL-2 melanoma)	TGI (SN12C renal)	TGI (HCT-116 colon)	TGI (SF-295 CNS)	TGI (CCRF-CEM leukemia)	TGI (SK-MEL-5 melanoma)	TGI (ACHN renal)	TGI (HOP-92 NSCLC)	TGI (RXF 393 renal)
C=CCOC(=O)Cn1cc(C)c(=O)[nH]c1=O	> 100 µM	> 100 µM	> 100 µM	> 100 µM	> 100 µM	> 100 µM	> 100 µM	> 100 µM	> 100 µM	> 100 µM	> 100 µM	> 100 µM	> 100 µM	> 100 µM	> 100 µM	> 100 µM	> 100 µM	> 100 µM		
CCOc1ccc(Nc2nc3c(s2)C(=O)c2ccccc2C3=O)cc1	29.7 µM	5.13 µM		24 µM	8.19 µM	> 100 µM	3.69 µM	44.3 µM		18.4 µM	49.9 µM	30.6 µM	13.5 µM	33.2 µM	23.5 µM	> 100 µM	4.07 µM	28.9 µM	27.6 µM	27.6 µM
COCO[C@@H]1C[C@H]2C(=O)N(COC)c3ccccc3C(=O)N2C1	> 100 µM	> 100 µM	> 100 µM	> 100 µM	> 100 µM	> 100 µM	> 100 µM	> 100 µM	> 100 µM	> 100 µM	> 100 µM	> 100 µM	> 100 µM	> 100 µM	> 100 µM	> 100 µM	> 100 µM	> 100 µM		> 100 µM
COC(=O)[C@H](Cc1ccccc1)NC(=O)N1CCCN(C(=O)N[C@@H](Cc2ccccc2)C(=O)OC)CCCN(C(=O)N[C@@H](Cc2ccccc2)C(=O)OC)CCC1	44.3 µM	30.2 µM	74.7 µM	30.6 µM	34.1 µM	63.4 µM	45.8 µM	76.4 µM	53.3 µM		34.8 µM	29.5 µM	39.1 µM	38.9 µM	37.6 µM	92.8 µM	35.9 µM	31.3 µM	30.3 µM	32.6 µM
Cc1ccc(Cc2n[nH]c(=O)n2-c2ccccc2)cc1	> 100 µM	> 100 µM	> 100 µM	> 100 µM	> 100 µM	> 100 µM	> 100 µM	> 100 µM	> 100 µM	> 100 µM	61.8 µM	> 100 µM	> 100 µM	> 100 µM	> 100 µM		> 100 µM	> 100 µM		> 100 µM
Cc1cc(NS(=O)(=O)c2ccc(NC(=O)c3ccc4[nH]c5ccccc5c(=O)c4c3)cc2)no1		> 100 µM	> 100 µM	> 100 µM	> 100 µM	> 100 µM	> 100 µM	> 100 µM	> 100 µM	> 100 µM	> 100 µM	> 100 µM	> 100 µM	> 100 µM	> 100 µM	> 100 µM	> 100 µM	> 100 µM	> 100 µM	90.7 µM
CC(C)(C)OC(=O)CC(NC(=O)OC(C)(C)C)C(=O)N[C@@H]1CCCC[C@H]1C(=O)OCc1ccccc1 (some centres not stated)		60.8 µM	> 100 µM	> 100 µM	> 100 µM	39.4 µM	> 100 µM	93.4 µM	85.3 µM	> 100 µM	59.3 µM	61.1 µM	48.7 µM	52.5 µM	70.2 µM	83.2 µM	24.5 µM	> 100 µM	> 100 µM	> 100 µM
N#Cc1n[nH]n(C2CCCCC2)c1=O	> 100 µM	> 100 µM	> 100 µM	> 100 µM	> 100 µM	> 100 µM	> 100 µM	> 100 µM	> 100 µM	> 100 µM	> 100 µM	> 100 µM	> 100 µM	> 100 µM	> 100 µM	> 100 µM	> 100 µM	> 100 µM		> 100 µM
COc1cc(-c2cc(=O)c3c(OC)c(OC)c(OC)cc3o2)c(OC)c(OC)c1OC		> 75 µM	> 75 µM	> 75 µM	> 75 µM	> 75 µM	> 75 µM	> 75 µM	> 75 µM	> 75 µM	> 75 µM	> 75 µM	> 75 µM	> 75 µM	> 75 µM	> 75 µM	> 75 µM	> 75 µM	> 75 µM	> 75 µM
c1ccc2c(c1)Nc1ccccc1[P+]21c2ccccc2Nc2ccccc21	2.93 µM		> 100 µM	0.332 µM		24.5 µM	1.11 µM	3.29 µM	0.83 µM	0.588 µM	1.91 µM	0.482 µM	0.631 µM	1.05 µM	5.16 µM	0.85 µM	0.31 µM	9.29 µM		0.891 µM
O=C1CCCC2C(O)CCC[C@H]12 (some centres not stated)		> 100 µM	> 100 µM	> 100 µM	> 100 µM	> 100 µM	> 100 µM	> 100 µM	> 100 µM	> 100 µM	> 100 µM	> 100 µM	> 100 µM	> 100 µM	> 100 µM	> 100 µM	> 100 µM	> 100 µM		> 100 µM
O=[N+]([O-])c1ccc(-c2nc3ccc([N+](=O)[O-])cc3[nH]2)cc1		> 100 µM	57.6 µM	> 100 µM	84.2 µM	> 100 µM	> 100 µM	62.7 µM	65.3 µM		61.7 µM	59.6 µM	> 100 µM	38.3 µM	66.1 µM		44.9 µM	> 100 µM	59.4 µM	> 100 µM
CC1=NOC2(C1)C(=O)Nc1ccccc12 (configuration not stated)	96.4 µM	> 100 µM	> 100 µM	> 100 µM	> 100 µM	> 100 µM	> 100 µM	> 100 µM	> 100 µM	> 100 µM	> 100 µM	> 100 µM	> 100 µM	> 100 µM	> 100 µM	> 100 µM	> 100 µM	> 100 µM		> 100 µM
O=C1Cc2c([nH]c3c(Cl)cccc23)-c2ccccc2N1	> 100 µM	> 100 µM		> 100 µM	> 100 µM	> 100 µM	> 100 µM	> 100 µM	> 100 µM	> 100 µM	> 100 µM		> 100 µM	> 100 µM	> 100 µM	> 100 µM	> 100 µM	> 100 µM	> 100 µM	
n1onc2c1NC1Nc3nonc3NC1N2 (configuration not stated)	> 100 µM		> 100 µM	> 100 µM		> 100 µM	> 100 µM	> 100 µM	> 100 µM		> 100 µM		> 100 µM	> 100 µM	> 100 µM	> 100 µM	> 100 µM	> 100 µM	> 100 µM	
Cc1ccc(S(=O)(=O)n2c3c(c4ccccc42)CCN2C(=O)C(S(=O)(=O)c4ccccc4)=CCC32)cc1 (configuration not stated)	0.582 µM	0.622 µM		1.41 µM	0.463 µM	0.421 µM	0.378 µM	2.77 µM	0.335 µM	0.409 µM	0.375 µM	0.475 µM	0.434 µM		3.49 µM		0.337 µM	0.393 µM	0.315 µM	0.273 µM
O=C(Nc1nc(C23CC4CC(CC(C4)C2)C3)cs1)c1c(O)c2ccccc2[nH]c1=O	> 100 µM		> 100 µM		> 100 µM	> 100 µM	> 100 µM	> 100 µM	> 100 µM	> 100 µM			> 100 µM	> 100 µM	> 100 µM	> 100 µM	> 100 µM	> 100 µM	> 100 µM	> 100 µM
Cc1cc2c(cc1Cl)SC(c1ccccc1)C(=O)NS2(=O)=O (configuration not stated)	75.5 µM		91.9 µM	87 µM		64 µM	> 100 µM		56.2 µM	> 100 µM	84.6 µM	32.9 µM		45.6 µM	95.6 µM	> 100 µM	48.8 µM	> 100 µM	> 100 µM	> 100 µM
CC(C)(C)n1c(=O)[nH]n(C2NN=Cc3cccc4cccc2c34)c1=O (configuration not stated)	64.9 µM	> 100 µM	> 100 µM	85.6 µM	> 100 µM	> 100 µM	59.4 µM	63.4 µM	> 100 µM	> 100 µM	> 100 µM	> 100 µM	> 100 µM	> 100 µM		63.6 µM				72.2 µM
CCOC(O)(NC(=O)C(C(F)(F)F)C(F)(F)F)C(F)(F)F (configuration not stated)	> 100 µM		> 100 µM	> 100 µM		> 100 µM	> 100 µM	> 100 µM	> 100 µM		> 100 µM	> 100 µM	> 100 µM	> 100 µM		> 100 µM	> 100 µM	> 100 µM		> 100 µM
O=S(=O)(O)CCCC1S(=O)(=O)OCCOS1(=O)=O	> 100 µM	> 100 µM	> 100 µM	> 100 µM	> 100 µM	> 100 µM	> 100 µM		> 100 µM	> 100 µM	> 100 µM			> 100 µM	> 100 µM		> 100 µM	> 100 µM	> 100 µM	> 100 µM
Cn1c(N)c(C(N)=O)[nH]c1=S	> 100 µM	> 100 µM	> 100 µM	> 100 µM	> 100 µM	> 100 µM	> 100 µM	> 100 µM	> 100 µM	> 100 µM	> 100 µM	> 100 µM	> 100 µM		> 100 µM	> 100 µM	> 100 µM	> 100 µM		> 100 µM
COc1ccc(/C=C2\C(=O)N(C)C(=O)c3cc(OC)c(OC)cc32)cc1OC	> 100 µM	94 µM				> 100 µM	75.2 µM	> 100 µM	> 100 µM	> 100 µM	> 100 µM	> 100 µM	> 100 µM	> 100 µM	78.7 µM	69.7 µM	89.8 µM	> 100 µM	75.5 µM	51.6 µM
Cc1nc2ccc(Cl)cc2c2c1CCS2	99.2 µM	> 100 µM	> 100 µM		> 100 µM	> 100 µM	> 100 µM	> 100 µM	> 100 µM	> 100 µM	> 100 µM	> 100 µM	> 100 µM	> 100 µM	> 100 µM	> 100 µM	77.7 µM	> 100 µM		> 100 µM
Cn1c(-c2cccs2)cc(-c2ccccc2)c1-c1cccs1	> 100 µM	> 100 µM	> 100 µM	> 100 µM		> 100 µM	> 100 µM	45.7 µM	> 100 µM	> 100 µM	> 100 µM	> 100 µM	> 100 µM	> 100 µM	> 100 µM	> 100 µM	> 100 µM	> 100 µM	> 100 µM	> 100 µM
O=C(NCCCCN(CCCNC(=O)C(F)(F)F)Cc1ccc2ccccc2c1)C(F)(F)F	62.2 µM	37 µM	32.7 µM	28.5 µM	29.1 µM	31.1 µM	31.6 µM	> 100 µM	44.6 µM	31.1 µM	40.2 µM		30.3 µM	33.9 µM	32.7 µM		48.9 µM	38.9 µM	67.1 µM	52.9 µM
